Our source for the IC50 values is patent US20230322767A1, “ARYL SUBSTITUTED PYRROLO-PYRIDINONES AND THERAPEUTIC USES THEREOF” (Bayer Aktiengesellschaft, priority 2020, published 2023).

Where two headings read alike, the source gives them in different places.

Common to all, as to type: biochemical
For test [1], the target named is CSNK1A1 (Homo sapiens (Human), UniProt P48729). Nature of the test: CSNK1A1 Assay 2 (ADP-Glo, 1 μM ATP). The settings on record: median, read-out: CSNK1A1 Assay 2 IC50 [mol/l] (median). A digest of the protocol:
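Enzyme (~0.0375 ng/μL) preincubated 15 min at 22° C with compound in HEPES pH 7.5 buffer, then reacted with 1 μM ATP and biotin-Ahx-KRRRAL-pS-VASLPGL peptide. ADP product measured by ADP-Glo luminescence after 1 h ATP depletion and 1 h detection at 22° C.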
In general terms: ADP-Glo first removes unused ATP, then detects ADP through luciferase.

In test [2] the target is CSNK1D (Homo sapiens (Human), UniProt P48730). The test can be described thus: CSNK1D Assay (ADP-Glo, 1 μM ATP). The settings on record: median, read-out: CSNK1D IC50 [mol/l] (median). Put shortly: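 Enzyme preincubated with compound 15 min at 22° C in 50 mM HEPES pH 7.5 buffer with 10 mM MgCl2, 1 mM DTT; kinase reaction run at 1 μM ATP with biotinylated peptide substrate. ADP formed was detected by ADP-Glo luminescence as the measure of activity.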

Test [3] deals with wild-type Epidermal Growth Factor Receptor (EGFR) (Homo sapiens (Human), UniProt P00533). Nature of the test: WT-EGFR Kinase Assay (TR-FRET, 2 mM ATP). A digest of the protocol: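 GST-tagged human EGFR (R669–A1210, Sf9-expressed) preincubated 15 min at 22° C with compound in pH 7.0 Hepes/MgCl2 buffer, then reacted at 2 mM ATP with a biotinylated peptide substrate. Phosphorylation detected by TR-FRET (streptavidin-XL665, Tb-cryptate anti-phosphotyrosine) as the 665/620 nm emission ratio.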
(Time-resolved FRET reads energy transfer from a long-lived donor to a nearby acceptor.)

Where [4] appears, read: read-out: EGFR Wildtyp 2 mM ATP IC50 [mol/l] (median), median or individual measurements.
[5] abbreviates: EGFR Wildtyp 2 mM ATP IC50 [mol/l] (median), median or individual measurements.

Chain of CSNK1A1 (P48729 whole entry): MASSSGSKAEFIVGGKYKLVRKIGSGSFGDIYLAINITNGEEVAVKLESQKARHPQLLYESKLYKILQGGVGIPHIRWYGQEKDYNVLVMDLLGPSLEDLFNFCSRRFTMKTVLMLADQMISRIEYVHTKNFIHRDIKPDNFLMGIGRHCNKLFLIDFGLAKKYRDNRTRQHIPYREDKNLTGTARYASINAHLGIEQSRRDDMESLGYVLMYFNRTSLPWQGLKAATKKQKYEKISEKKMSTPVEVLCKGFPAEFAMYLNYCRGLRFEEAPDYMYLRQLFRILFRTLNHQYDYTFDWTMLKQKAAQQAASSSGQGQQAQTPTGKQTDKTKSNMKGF
Chain of wild-type Epidermal Growth Factor Receptor (EGFR) (P00533 669-1210): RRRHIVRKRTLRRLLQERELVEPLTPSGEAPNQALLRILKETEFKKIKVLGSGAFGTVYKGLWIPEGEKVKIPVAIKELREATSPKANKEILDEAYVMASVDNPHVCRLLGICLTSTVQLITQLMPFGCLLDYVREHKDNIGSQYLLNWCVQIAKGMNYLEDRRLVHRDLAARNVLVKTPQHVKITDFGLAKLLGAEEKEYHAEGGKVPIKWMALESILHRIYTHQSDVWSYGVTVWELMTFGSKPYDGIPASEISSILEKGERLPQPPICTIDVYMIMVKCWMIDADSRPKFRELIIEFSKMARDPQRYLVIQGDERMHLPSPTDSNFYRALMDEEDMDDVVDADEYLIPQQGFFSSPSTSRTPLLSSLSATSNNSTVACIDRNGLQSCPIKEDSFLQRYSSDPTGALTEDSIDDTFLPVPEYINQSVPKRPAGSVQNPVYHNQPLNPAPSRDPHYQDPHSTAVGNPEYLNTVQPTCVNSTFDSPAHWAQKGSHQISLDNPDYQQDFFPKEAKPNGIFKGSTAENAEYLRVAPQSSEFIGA
Chain of CSNK1D (P48730 whole entry): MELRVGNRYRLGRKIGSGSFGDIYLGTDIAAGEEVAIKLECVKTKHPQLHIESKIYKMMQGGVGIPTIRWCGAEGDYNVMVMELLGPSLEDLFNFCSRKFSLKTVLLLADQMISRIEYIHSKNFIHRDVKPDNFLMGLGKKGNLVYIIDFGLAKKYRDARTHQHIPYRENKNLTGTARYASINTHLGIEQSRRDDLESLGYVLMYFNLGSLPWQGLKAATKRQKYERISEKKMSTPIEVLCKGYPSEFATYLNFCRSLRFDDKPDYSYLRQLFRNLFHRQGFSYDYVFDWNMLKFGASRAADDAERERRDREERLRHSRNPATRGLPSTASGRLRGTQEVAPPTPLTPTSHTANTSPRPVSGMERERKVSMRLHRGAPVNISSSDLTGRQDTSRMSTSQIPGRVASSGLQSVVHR

For the molecule `CN1CC(C)(C)c2[nH]c(-c3ccnc(NC(=O)C(CC(F)F)c4ccc(F)cc4)c3)c(-c3ccccc3)c2C1=O` (single isomer, unassigned; (+)) [Example 152, (+)-4,4-difluoro-2-(4-fluorophenyl)-N-[4-(5,7,7-trimethyl-4-oxo-3-phenyl-4,5,6,7-tetrahydro-1H-pyrrolo[3,2-c]pyridin-2-yl)pyridin-2-yl]butanamide], the IC50 in test [1] was 4.3 nM; in test [2], 4.5 nM; in test [3] (setting [4]), more than 20000 nM.
Consider `CC(C(=O)Nc1cc(-c2[nH]c3ccn(C)c(=O)c3c2-c2ccc(F)cc2)ccn1)c1ccc(F)cc1` (single isomer, unassigned; (-)) [Example 101, (−)-2-(4-fluorophenyl)-N-{4-[3-(4-fluorophenyl)-5-methyl-4-oxo-4,5-dihydro-1H-pyrrolo[3,2-c]pyridin-2-yl]pyridin-2-yl}propanamide], for which the IC50 in test [1] was found to be 12 nM; in test [2] it was 5.6 nM; in test [3] (setting [5]), 32.4 nM.
For `Cn1ccc2[nH]c(-c3ccnc(NC(=O)C(CC(F)F)c4ccc(F)cc4)c3)c(-c3ccc(F)cc3)c2c1=O` (single isomer, unassigned; (-)) [Example 108, (−)-4,4-difluoro-2-(4-fluorophenyl)-N-{4-[3-(4-fluorophenyl)-5-methyl-4-oxo-4,5-dihydro-1H-pyrrolo[3,2-c]pyridin-2-yl]pyridin-2-yl}butanamide], in that order: 15 nM, 9.4 nM and 663 nM.
Regarding `O=C(Nc1cc(-c2[nH]c3ccn(C4CC4)c(=O)c3c2-c2ccc(F)cc2)ccn1)C(CC(F)F)c1ccc(F)cc1` (single isomer, unassigned; (-)) [Example 135, (−)-N-{4-[5-cyclopropyl-3-(4-fluorophenyl)-4-oxo-4,5-dihydro-1H-pyrrolo[3,2-c]pyridin-2-yl]pyridin-2-yl}-4,4-difluoro-2-(4-fluorophenyl)butanamide], the IC50 was 7.8 nM in test [1], 5.4 nM in test [2] and more than 20000 nM in test [3] (setting [5]).
For `CN1CC(C)(C)c2[nH]c(-c3ccnc(NC(=O)C(CC(F)F)c4ccc(F)cc4)c3)c(-c3ccccc3)c2C1=O` (single isomer, unassigned; (-)) [Example 151, (−)-4,4-difluoro-2-(4-fluorophenyl)-N-[4-(5,7,7-trimethyl-4-oxo-3-phenyl-4,5,6,7-tetrahydro-1H-pyrrolo[3,2-c]pyridin-2-yl)pyridin-2-yl]butanamide], in that order: 17 nM, 19 nM and more than 20000 nM.
As to `CN1CCc2[nH]c(-c3ccnc(NC(=O)Cc4ccc(F)cc4)c3)c(-c3ccccc3)c2C1=O` [Example 1, 2-(4-fluorophenyl)-N-[4-(5-methyl-4-oxo-3-phenyl-4,5,6,7-tetrahydro-1H-pyrrolo[3,2-c]pyridin-2-yl)pyridin-2-yl]acetamide], the IC50 is 1.3 nM in test [1], 3.7 nM in test [2] and more than 20000 nM in test [3] (setting [4]).
Take `CN1CC(CC2CC2)c2[nH]c(-c3ccnc(NC(=O)C(CC(F)F)c4ccc(F)cc4)c3)c(-c3ccc(F)cc3)c2C1=O` (stereo not shown) [Example 64, N-{4-[7-(cyclopropylmethyl)-3-(4-fluorophenyl)-5-methyl-4-oxo-4,5,6,7-tetrahydro-1H-pyrrolo[3,2-c]pyridin-2-yl]pyridin-2-yl}-4,4-difluoro-2-(4-fluorophenyl)butanamide]: the results for the IC50 in test [1], in test [2] and in test [3] (setting [4]) were 8.5 nM, 4.8 nM and more than 20000 nM, respectively.
For `O=C(Cc1ccc(F)cc1)Nc1cc(-c2[nH]c3c(c2-c2ccccc2)C(=O)NCC3)ccn1` [Example 72, 2-(4-fluorophenyl)-N-[4-(4-oxo-3-phenyl-4,5,6,7-tetrahydro-1H-pyrrolo[3,2-c]pyridin-2-yl)pyridin-2-yl]acetamide], in that order: 0.66 nM, 1.3 nM and more than 20000 nM.
Regarding `O=C(Cc1ccc(F)cc1)Nc1cc(-c2[nH]c3cc[nH]c(=O)c3c2-c2ccccc2)ccn1` [Example 73, 2-(4-fluorophenyl)-N-[4-(4-oxo-3-phenyl-4,5-dihydro-1H-pyrrolo[3,2-c]pyridin-2-yl)pyridin-2-yl]acetamide], the values for the IC50 in test [1], in test [2] and in test [3] (setting [4]) were 1.9 nM, 5.4 nM and more than 20000 nM, respectively.
Take `Cn1cc(Cl)c2[nH]c(-c3ccnc(NC(=O)Cc4ccc(F)cc4)c3)c(-c3ccccc3)c2c1=O` [Example 79, N-[4-(7-chloro-5-methyl-4-oxo-3-phenyl-4,5-dihydro-1H-pyrrolo[3,2-c]pyridin-2-yl)pyridin-2-yl]-2-(4-fluorophenyl)acetamide]: the figures for the IC50 in test [1], in test [2] and in test [3] (setting [4]) were 5.1 nM, 4.8 nM and more than 20000 nM, respectively.
Turning to `CC1(C)Cc2[nH]c(-c3ccnc(NC(=O)Cc4ccc(F)cc4)c3)c(-c3ccccc3)c2C(=O)N1` [Example 82, N-[4-(6,6-dimethyl-4-oxo-3-phenyl-4,5,6,7-tetrahydro-1H-pyrrolo[3,2-c]pyridin-2-yl)pyridin-2-yl]-2-(4-fluorophenyl)acetamide], the IC50 in test [1] was 1.3 nM; in test [2], 2.4 nM; in test [3] (setting [4]), more than 20000 nM.
As to `CC1(C)Cc2[nH]c(-c3ccnc(NC(=O)Cc4ccc(F)cc4)c3)c(-c3ccc(F)cc3)c2C(=O)N1` [Example 83, 2-(4-fluorophenyl)-N-{4-[3-(4-fluorophenyl)-6,6-dimethyl-4-oxo-4,5,6,7-tetrahydro-1H-pyrrolo[3,2-c]pyridin-2-yl]pyridin-2-yl}acetamide], the IC50 is 1.9 nM in test [1], 3.5 nM in test [2] and more than 20000 nM in test [3] (setting [4]).
With `CC1(C)Cc2[nH]c(-c3ccnc(NC(=O)Cc4ccc(F)cc4)c3)c(-c3ccccc3F)c2C(=O)N1` [Example 84, 2-(4-fluorophenyl)-N-{4-[3-(2-fluorophenyl)-6,6-dimethyl-4-oxo-4,5,6,7-tetrahydro-1H-pyrrolo[3,2-c]pyridin-2-yl]pyridin-2-yl}acetamide], the IC50 in test [1] was 3.4 nM; in test [2], 4.8 nM; in test [3] (setting [5]), more than 20000 nM; in test [3] (read-out: EGFR Wildtyp 2 mM ATP IC50 [mol/l] (median), median or individual measurements, listed as 084), 16000 nM.
Regarding `CC1(C)Cc2[nH]c(-c3ccnc(NC(=O)Cc4ccc(F)cc4)c3)c(-c3cccc(F)c3)c2C(=O)N1` [Example 85, 2-(4-fluorophenyl)-N-{4-[3-(3-fluorophenyl)-6,6-dimethyl-4-oxo-4,5,6,7-tetrahydro-1H-pyrrolo[3,2-c]pyridin-2-yl]pyridin-2-yl}acetamide], the IC50 in test [1] was 1.9 nM; in test [2], 3.9 nM; in test [3] (setting [4]), more than 5710 nM.
In the case of `Cc1cccc(-c2c(-c3ccnc(NC(=O)Cc4ccc(F)cc4)c3)[nH]c3c2C(=O)NC(C)(C)C3)c1` [Example 86, N-{4-[6,6-dimethyl-3-(3-methylphenyl)-4-oxo-4,5,6,7-tetrahydro-1H-pyrrolo[3,2-c]pyridin-2-yl]pyridin-2-yl}-2-(4-fluorophenyl)acetamide], the IC50 was 4 nM in test [1], 5.2 nM in test [2] and more than 20000 nM in test [3] (setting [4]).
With `CC(C(=O)Nc1cc(-c2[nH]c3c(c2-c2ccccc2F)C(=O)NC(C)(C)C3)ccn1)c1ccc(F)cc1` (stereo not shown) [Example 87, 2-(4-fluorophenyl)-N-{4-[3-(2-fluorophenyl)-6,6-dimethyl-4-oxo-4,5,6,7-tetrahydro-1H-pyrrolo[3,2-c]pyridin-2-yl]pyridin-2-yl}propanamide], the figures for the IC50 in test [1], in test [2] and in test [3] (setting [4]) were 12 nM, 13 nM and more than 20000 nM, respectively.
In the case of `CC1(C)Cc2[nH]c(-c3ccnc(NC(=O)Cc4ccc(F)cc4)c3)c(-c3ccc(Cl)cc3)c2C(=O)N1` [Example 90, N-{4-[3-(4-chlorophenyl)-6,6-dimethyl-4-oxo-4,5,6,7-tetrahydro-1H-pyrrolo[3,2-c]pyridin-2-yl]pyridin-2-yl}-2-(4-fluorophenyl)acetamide], the IC50 in test [1] is 3.2 nM; in test [2], 4.1 nM; in test [3] (setting [4]), more than 20000 nM.
For `Cc1ccc(-c2c(-c3ccnc(NC(=O)Cc4ccc(F)cc4)c3)[nH]c3c2C(=O)NC(C)(C)C3)cc1` [Example 92, N-{4-[6,6-dimethyl-3-(4-methylphenyl)-4-oxo-4,5,6,7-tetrahydro-1H-pyrrolo[3,2-c]pyridin-2-yl]pyridin-2-yl}-2-(4-fluorophenyl)acetamide], in that order: 4.5 nM, 5.7 nM and more than 20000 nM.
Consider `CC1(C)Cc2[nH]c(-c3ccnc(NC(=O)Cc4ccc(F)cc4)c3)c(-c3cccnc3)c2C(=O)N1` [Example 93, N-{4-[6,6-dimethyl-4-oxo-3-(pyridin-3-yl)-4,5,6,7-tetrahydro-1H-pyrrolo[3,2-c]pyridin-2-yl]pyridin-2-yl}-2-(4-fluorophenyl)acetamide], for which the IC50 is 4 nM in test [1], 9.3 nM in test [2] and more than 20000 nM in test [3] (setting [4]).
